Laboratory results as given in patent publication US20240262842A1, “SMALL MOLECULE INHIBITORS OF KRAS G12C MUTANT” (Merck Sharp & Dohme LLC, priority 2021, published 2024).
Read-outs that look alike come from different tables or passages of the source.

Columns and labels:
[1] = biological target: T1, interaction between GMPPNP-bound recombinant K-Ras4B G12C mutant protein and cRAF RAS-binding domain (cRAF-RBD) (Homo sapiens, UniProt P01116, G12C); test: Inhibitory activity on interaction between KRAS G12C and cRAF (Alpha technology); settings: Table 2
T1 construct: His-tag (N)
T1 sequence (P01116 with tags, fused parts or gaps isoform P01116-2 G12C): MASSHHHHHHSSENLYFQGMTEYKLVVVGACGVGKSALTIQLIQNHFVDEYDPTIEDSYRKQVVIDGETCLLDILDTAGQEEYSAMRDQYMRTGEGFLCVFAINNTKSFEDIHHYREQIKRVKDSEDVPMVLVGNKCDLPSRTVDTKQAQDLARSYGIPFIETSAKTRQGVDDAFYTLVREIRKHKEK
Method: Interaction between recombinant K-Ras4B G12C mutant protein (amino acids 1-169, SEQ ID NO:2) and cRAF RAS-binding domain (cRAF-RBD, amino acids 50-132, Jena Biosciences GmbH) was measured using Alpha technology (PerkinElmer Inc.).
Recombinant KRAS G12C protein with an N-terminal His-tag was expressed in E. coli and purified by affinity chromatography. To prepare GTP-bound form and GDP-bound form of KRAS G12C protein, 50 μM KRAS G12C protein was incubated with 1 mM GMPPNP (Guanosine-5′-[(β,γ)-imido]triphosphate, Tetralithium salt) (Jena Bioscience GmbH) and 1 mM GDP, respectively, in a loading buffer (20 mM Tris-HCl (pH 7.5), 50 mM NaCl, 1 mM DTT and 2.5 mM EDTA) for 1 hour on ice. After the incubation, MgCl2 was added to a final concentration of 10 mM, followed by incubation at room temperature for 30 minutes. The mixture was allowed to pass through a NAP-5 column to remove free nucleotides and purified, and the resultant nucleotide-bound KRAS G12C protein was used for compound evaluation.
For the measurement of the inhibitory activity of compounds on interaction between KRAS G12C and cRAF-RBD, GMPPNP-bound KRAS G12C protein was incubated with various concentrations of compound in a reaction buffer (20 mM Tris-HCl (pH 7.5), 100 mM NaCl, 1 mM MgCl2, 1 mM TCEP, 0.1% Tween 20) at 25° C. for 1 hour. After the incubation, recombinant cRAF-RBD and Alpha detection reagents were added and incubated at room temperature for 1.5 hours for binding. Interaction of KRAS G12C and cRAF-RBD was monitored by measuring Alpha signal. Inhibition % was calculated using the signal from the reaction without test compound (DMSO control) as 0% inhibition and the signal from the reaction using GDP-bound KRAS G12C in place of GMPPNP-bound KRAS G12C as 100% inhibition. IC50 values were calculated from dose titration curve using curve fitting by XLfit software (IDBS).

MIA PaCa-2 cells = test: Growth inhibition activity on KRAS-G12C mutant cell line (CellTiter-Glo 3D); assay type: cell-based, human; settings: MIA PaCa-2, 3-day culture with compound; Table 3
Method: MIA PaCa-2 cells (given by Sumitomo Dainippon Pharma Co., Ltd.), which are a KRAS-G12C mutant human pancreas cancer cell line, were suspended in a 10% fetal bovine serum-containing RPMI1640 medium (manufactured by Fujifilm Wako Pure Chemical Corporation). The cell suspension was seeded into each well of a 384-well U bottom microplate and cultured in an incubator containing 5% CO2 gas at 37° C. for 1 day. The compounds obtained in the “Preparation of Compounds” section were used as test compounds and were dissolved in DMSO, respectively, and each test compound was diluted with DMSO to give a concentration 500 times the final concentration. The resultant solution of the test compound in DMSO was diluted with the medium used for suspending cells and added to each well of the cell-culture plate to give a DMSO final concentration of 0.2%, followed by culture in an incubator containing 5% CO2 gas at 37° C. for another 3 days. The cell count after 3-day culture in the presence of the test compound was measured using CellTiter-Glo 3D Reagent (manufactured by Promega Corporation). All wells were added with CellTiter-Glo 3D Reagent and mixed for 10 minutes. 30 minutes after mixing, luminescence was measured by a plate reader. The growth inhibition rate was calculated from the following equation, and the concentration of the test compound at which 50% inhibition was achieved (IC50 (nM)) was determined.
[formula] • T: the emission intensity in a well into which a test compound was added. • C: the emission intensity in a well into which a test compound was not added.

[2] = IC50, GMPPNP-bound KRAS G12C incubated with compound 25° C. 1 hour
[3] = GMPPNP-bound KRAS G12C incubated with compound 25° C. 1 hour, read-out: IC50

| Compound | IC50 [1, 2] [nM] | IC50 (MIA PaCa-2 cells) [nM] | IC50 [1, 3] [nM] |
| --- | --- | --- | --- |
| CO[C@H]1CC[C@H](NC/C=C/C(=O)Nc2c(F)cc(C(=O)c3cn4c5c(cccc35)-c3c(cccc3C(F)(F)F)OCC4)cc2F)CC1 (single isomer, unassigned) [Example 11-1] | > 6700 | 7800 |  |
| CO[C@H]1CC[C@H](NC/C=C/C(=O)Nc2c(F)cc(C(=O)c3cn4c5c(cccc35)-c3c(cccc3C(F)(F)F)OCC4)cc2F)CC1 (single isomer, unassigned) [Example 11-2] | 77 | 91 |  |
| CO[C@H]1CC[C@H](NC/C=C/C(=O)Nc2c(F)cc(C(=O)c3cn4c5c(cccc35)-c3c(C(F)(F)F)cc5c(nc(C)n5C)c3OCC4)cc2F)CC1 (single isomer, unassigned) [Example 12-1, (E)-N-(4-(8,9-dimethyl-6-(trifluoromethyl)-12,13-dihydro-8H-imidazo[4″,5″:3′,4′]benzol[1′,2′:7,8][1,4]oxazocino[6,5,4-hi]indole-2-carbonyl)-2,6-difluorophenyl)-4-(((1r,4r)-4-methoxycyclohexyl)amino)but-2-enamide] | 5 | 1 |  |
| CO[C@H]1CC[C@H](NC/C=C/C(=O)Nc2c(F)cc(C(=O)c3cn4c5c(cccc35)-c3c(C(F)(F)F)cc5c(nc(C)n5C)c3OCC4)cc2F)CC1 (single isomer, unassigned) [Example 12-2, (E)-N-(4-(8,9-dimethyl-6-(trifluoromethyl)-12,13-dihydro-8H-imidazo[4″,5″:3′,4′]benzol[1′,2′:7,8][1,4]oxazocino[6,5,4-hi]indole-2-carbonyl)-2,6-difluorophenyl)-4-(((1r,4r)-4-methoxycyclohexyl)amino)but-2-enamide] | > 6700 | 1600 |  |
| CO[C@H]1CC[C@H](NC/C=C/C(=O)Nc2c(F)cc(C(=O)c3cn4c5c(cccc35)-c3c(C)cc5c(nc(C)n5C)c3OCC4)cc2F)CC1 (single isomer, unassigned) [Example 14-1, (E)-N-(2,6-difluoro-4-(6,8,9-trimethyl-12,13-dihydro-8H-imidazo[4″,5″:3′,4′]benzo[1′,2′:7,8][1,4]oxazocino[6,5,4-hi]indole-2-carbonyl)phenyl)-4-(((11,4r)-4-methoxycyclohexyl)amino)but-2-enamide] | 9 | 17 |  |
| CO[C@H]1CC[C@H](NC/C=C/C(=O)Nc2c(F)cc(C(=O)c3cn4c5c(cccc35)-c3c(C)cc5c(nc(C)n5C)c3OCC4)cc2F)CC1 (single isomer, unassigned) [Example 14-2, (E)-N-(2,6-difluoro-4-(6,8,9-trimethyl-12,13-dihydro-8H-imidazo[4″,5″:3′,4′]benzo[1′,2′:7,8][1,4]oxazocino[6,5,4-hi]indole-2-carbonyl)phenyl)-4-(((11,4r)-4-methoxycyclohexyl)amino)but-2-enamide] | > 6700 | 3700 |  |
| CO[C@H]1CC[C@H](NC/C=C/C(=O)Nc2c(F)cc(C(=O)c3cn4c5c(cccc35)-c3c(C)cc5c(nc(C)n5C)c3OCCC4)cc2F)CC1 (single isomer, unassigned) [Example 15-1, (E)-N-(2,6-difluoro-4-(6,8,9-trimethyl-13,14-dihydro-8H,12H-imidazo[4″,5″:3′,4′]benzo[1′,2″:8,9][1,5]oxazonino[7,6,5-hi]indole-2-carbonyl)phenyl)-4-(((1r,4r)-4-methoxycyclohexyl)amino)but-2-enamide] | 3900 | 2700 |  |
| CO[C@H]1CC[C@H](NC/C=C/C(=O)Nc2c(F)cc(C(=O)c3cn4c5c(cccc35)-c3c(C)cc5c(nc(C)n5C)c3OCCC4)cc2F)CC1 (single isomer, unassigned) [Example 15-2, (E)-N-(2,6-difluoro-4-(6,8,9-trimethyl-13,14-dihydro-8H,12H-imidazo[4″,5″:3′,4′]benzo[1′,2″:8,9][1,5]oxazonino[7,6,5-hi]indole-2-carbonyl)phenyl)-4-(((1r,4r)-4-methoxycyclohexyl)amino)but-2-enamide] | 35 | 27 |  |
| CO[C@H]1CC[C@H](NC/C=C/C(=O)Nc2c(F)cc(C(=O)c3cn4c5c(cccc35)-c3c(C)cc5c(nc(C)n5C)c3OCC3(CC3)C4)cc2F)CC1 (single isomer, unassigned) [Example 21-1, (E)-N-(2,6-difluoro-4-(6′,8′,9′-trimethyl-8′H, 12′H,14′H-spiro[cyclopropane-1,13-imidazo[4″,5″:3′,4′]benzo[1′,2:8,9][1,5]oxazonino[7,6,5-hi]indole]-2′-carbonyl)phenyl)-4-(((1r,4t)-4-methoxycyclohexyl)amino)but-2-enamide] | 44 | 22 |  |
| CO[C@H]1CC[C@H](NC/C=C/C(=O)Nc2c(F)cc(C(=O)c3cn4c5c(cccc35)-c3c(C)cc5c(nc(C)n5C)c3OCC3(CC3)C4)cc2F)CC1 (single isomer, unassigned) [Example 21-2, (E)-N-(2,6-difluoro-4-(6′,8′,9′-trimethyl-8′H, 12′H,14′H-spiro[cyclopropane-1,13-imidazo[4″,5″:3′,4′]benzo[1′,2:8,9][1,5]oxazonino[7,6,5-hi]indole]-2′-carbonyl)phenyl)-4-(((1r,4t)-4-methoxycyclohexyl)amino)but-2-enamide] | 2800 | 1500 |  |
| CO[C@H]1CC[C@H](NC/C=C/C(=O)Nc2c(F)cc(C(=O)c3cn4c5c(cccc35)-c3c(C)cc5c(nc(C)n5C)c3OC[C@H](C)C4)cc2F)CC1 (single isomer, unassigned) [Example 23] | 19 | 13 |  |
| CO[C@H]1CC[C@H](NC/C=C/C(=O)Nc2c(F)cc(C(=O)c3cn4c5c(cccc35)-c3c(C)cc5c(nc(C)n5C)c3OC[C@H](C)C4)cc2F)CC1 (single isomer, unassigned) [Example 24] | 1800 | 1100 |  |
| CO[C@H]1CC[C@H](NC/C=C/C(=O)Nc2c(F)cc(C(=O)c3cc4c5c(cccn35)-c3c(C(F)(F)F)cc5c(nc(C)n5C)c3OCC4)cc2F)CC1 (single isomer, unassigned) [Example 30-1, (E)-N-(4-(9,10-dimethyl-7-(trifluoromethyl)-13,14-dihydro-9H-imidazo[4″,5″:5′,6′]benzo[1′,2′:2,3]oxocino[4,5,6-hi]indolizine-2-carbonyl)-2,6-difluorophenyl)-4-(((1r,4r)-4-methoxycyclohexyl)amino)but-2-enamide] |  | 3 | 7 |
| CO[C@H]1CC[C@H](NC/C=C/C(=O)Nc2c(F)cc(C(=O)c3cc4c5c(cccn35)-c3c(C(F)(F)F)cc5c(nc(C)n5C)c3OCC4)cc2F)CC1 (single isomer, unassigned) [Example 30-2, (E)-N-(4-(9,10-dimethyl-7-(trifluoromethyl)-13,14-dihydro-9H-imidazo[4″,5″:5′,6′]benzo[1′,2′:2,3]oxocino[4,5,6-hi]indolizine-2-carbonyl)-2,6-difluorophenyl)-4-(((1r,4r)-4-methoxycyclohexyl)amino)but-2-enamide] |  | 1600 | 6000 |
| Cc1nc2c3c(c(C(F)(F)F)cc2n1C)-c1cccn2c(C(=O)c4cc(F)c(NC(=O)/C=C/CNC5(C)COC5)c(F)c4)cc(c12)CCO3 (single isomer, unassigned) [Example 31-1, (E)-N-(4-(9,10-dimethyl-7-(trifluoromethyl)-13,14-dihydro-9H-imidazo[4″,5″:5′,6′]benzo[1′,2′:2,3]oxocino[4,5,6-hi]indolizine-2-carbonyl)-2,6-difluorophenyl)-4-((3-methyloxetan-3-yl)amino)but-2-enamide] |  | 7 | 11 |
